Experimental data taken from paper PMC12362615, “Design, Synthesis, and Cellular Characterization of a New Class of IPMK Kinase Inhibitors” (Journal of Medicinal Chemistry, 2025).
“Also recorded” adds a separate entry of the source.

Legend:
[1] = test system: AKT phosphorylation in U251-MG glioblastoma cells; experiment: Western blots of phospho-AKT; format: cell-based, human; set-up: key to AKT P-Thr-308 signal intensity compared to DMSO / AKT P-Ser-473 signal intensity compared to DMSO: ns= not si gni fi cant by unpai r ed t -test
Description: About 3.5 × 10^6 U251 cells were seeded in 15 cm plates containing 30 mL of DMEM supplemented with 4.5 g/L D-glucose, L-glutamine, 10% FBS, 1% nonessential amino acids, and 1% penicillin–streptomycin (all from Thermo Fisher). […] Protein concentration was equalized using a Bradford assay, and samples were run on SDS-PAGE at 150 V for 1 h. Protein transfer was performed at 20 V for 1 h, membranes were blocked with 7 mL of EveryBlot blocking buffer (Bio-Rad) for 10 min. Primary antibodies used were AKT (#9272), Actin (#3700), and phospho-AKT (Ser473, #4060) at a 1:1000 dilution in EveryBlot blocking buffer, and phospho-AKT (Thr308, #13038) at a 1:400 dilution; all antibodies were from Cell Signaling Technology. After overnight incubation at 4 °C, membranes were washed and incubated with secondary antibodies (1:10,000 dilution for AKT, Actin, and P-AKT Ser473; 1:4000 for P-AKT Thr308) for 1 h. Detection was performed using Clarity Western ECL substrate (Bio-Rad) according to the manufacturer’s instructions and imaged using the Bio-Rad ChemiDoc system.

[2] = Pharmacokinetic studies in mice; format: in vivo, male CD1 mice
Description: All the procedures related to animal handling, care, and treatment in this study were performed according to guidelines approved by the Institutional Animal Care and Use Committee (IACUC) of Pharmaron (PK-R-06012023 and PK-M-07182023), following the guidance of the Association for Assessment and Accreditation of Laboratory Animal Care (AAALAC). A group of 3 male CD1 mice (2 for exploratory PK) were dosed intravenously (IV) or intraperitoneally (IP) with a solution formulation of the tested compounds in 10% NMP, 5% Solutol in normal saline (v/v/v, 10:5:85). From each mouse, blood samples ([…]) were collected from the orbital vein such that samples were obtained at 0.083, 0.25, 0.5, 1, 2, 4, 8, and 24 h post dose. At each time point, blood samples were collected from three mice in labeled microcentrifuge tubes containing EDTA-K2 as an anticoagulant. Plasma samples were separated by centrifugation of whole blood and stored at −75 ± 15 °C until bioanalysis. All samples were processed for analysis by precipitation using acetonitrile (ACN) and analyzed with a fit-for-purpose LC/MS/MS method (the below quantifiable limit (BLOQ) was 5.0 ng/mL). Pharmacokinetic parameters were calculated by a noncompartmental analysis model using WinNonlin 8.3.

[3] = test system: human U251-MG glioblastoma cells; experiment: CyQuant cell count / proliferation assay; format: cell-based; details: 48 h
Description: 1 Compound 1 inhibits human U251 glioblastoma cell growth and labeled inositol phosphate levels. (A) Schematic of inositol phosphate metabolism. (B) Chemical structure of compound 1, indicating moiety A (blue highlight), the core (gray highlight), and moiety B (red highlight), and the IC50 value as determined by the kinase-GLO assay. (C) CyQuant cell count assay of 10,000 human U251-MG glioblastoma cells seeded per well, treated for 48 h with DMSO vehicle or 400 nM compound 1 (n = 8, ***p = 0.0046, unpaired t test). (D) HPLC analysis of ^3H-inositol phosphates from U251-MG cells treated with 400 nM compound 1 (red bars) or DMSO (blue bars) and metabolically labeled with ^3H-inositol for 48 h, expressed as the percentage of the inositol peak from the HPLC for InsP3, InsP4, InsP5, and InsP6, as indicated, *p < 0.05 by unpaired t test Bonferroni corrected for multiple comparisons. (E) Same data as in (D) replotted with a nonzero y-axis to facilitate visualizing differences between DMSO vs. compound treatment for each indicated inositol phosphate species, *p < 0.05 by unpaired t test Bonferroni corrected for multiple comparisons.
Error represents the standard error from 3 independent assays. (B) CyQuant cellular proliferation assay of 10,000 human U251-MG glioblastoma cells seeded per well, treated for 48 h with DMSO vehicle or 10 μM 14 (n = 8, ****p adj < 0.0001 by one-way ANOVA, Dunnett’s corrected; *p < 0.05 by unpaired t test). (C) HPLC analysis of ^3H-inositol phosphates from U251-MG cells treated with 10 μM compound 14 (red bars) or DMSO (blue bars) and metabolically labeled with ^3H-inositol for 48 h, expressed as a percentage of all the peaks detectable from the HPLC, *p < 0.05, **p < 0.01, ***p < 0.001 by unpaired t test compared to DMSO-treated control for all remaining panels, n = 3. (D) Same as (C) but expressed as a percentage of the inositol HPLC peak, n = 3. (E) Same as C but expressed as a percentage of all the inositol phosphate peaks combined from the HPLC, n = 3.

[4] = test system: SF-1 target genes in HEK293 cells bearing tetracycline-inducible SF-1; experiment: RT-qPCR analysis of SF-1 target genes; format: cell-based, human; set-up: key to relative NR0B2 expression vs DMSO + TET control / relative StAR expression vs DMSO + TET control: ns = not significant; *p<0.05; ****p<0.0001; details: for relative CYP11A1 expression vs DMSO + TET control / relative NR0B2 expression vs DMSO + TET control / relative StAR expression vs DMSO + TET control: 24 h, HEK293 Tet-inducible SF-1
[5] = male, CD1, mouse, plasma, IV, dose 2.75 mg/kg

- Vss (L/kg) ([2]; IV, dose 2.75 mg/kg): increased
- AUC(0-t) ([2]; male, CD1, mouse, plasma, 10 mg/kg via IV and IP administration (route of this value not stated), n = 3): 8.26 µM·h
- AUC(0-t) [2, 5]: 4.6 µM·h
- Cmax [2, 5]: 28.3 µM
- clearance [2, 5]: 22.8 mL/min/kg
- half-life [2, 5]: 1.95 h
- Vd ([2]; male, CD1, mouse, plasma, IV, dose 2.75 mg/kg, read-out: Vss): 0.39 L/kg
- bioavailability ([2]; male, CD1, mouse, plasma, intraperitoneal, 10 mg/kg, IP vs IV, n = 3): 82%
SMILES: c1cc(-c2onc3ccc(-c4nnn[nH]4)cc23)cc(C2CCN(C3CCC3)CC2)c1 [Compound 14, 3-(3-(1-Cyclobutylpiperidin-4-yl)phenyl)-5-(1H-tetrazol-5-yl)benzo[c]isoxazole]
- AKT P-Ser-473 signal intensity compared to DMSO ([1]; 10 μM): ns
- AKT P-Thr-308 signal intensity compared to DMSO ([1]; 10 μM): ns
- AKT P-Ser-473 signal intensity compared to DMSO ([1]; 30 μM): ns
- AKT P-Thr-308 signal intensity compared to DMSO ([1]; 30 μM): ns
- AKT P-Ser-473 signal intensity compared to DMSO ([1]; 50 μM): ns
- AKT P-Thr-308 signal intensity compared to DMSO ([1]; 50 μM): ns
- cytosolic AKT phosphorylation ([1]; after 48 h of treatment as printed in text): did not detect any changes
- cell growth ([3]; 1.0 μM): decreased cell growth
- cell growth, CyQuant cellular proliferation assay ([3]; 10 μM, vs DMSO): inhibits cell growth
- relative CYP11A1 expression vs DMSO + TET control ([4]; 10 μM): * (*p<0.05)
- relative NR0B2 expression vs DMSO + TET control ([4]; 10 μM): ns
- relative StAR expression vs DMSO + TET control ([4]; 10 μM): ns
- relative CYP11A1 expression vs DMSO + TET control ([4]; 30 μM): * (*p<0.05)
- relative NR0B2 expression vs DMSO + TET control ([4]; 30 μM): * (*p<0.05)
- relative StAR expression vs DMSO + TET control ([4]; 30 μM): * (*p<0.05)
- relative CYP11A1 expression vs DMSO + TET control ([4]; 50 μM): **** (****p<0.0001)
- relative NR0B2 expression vs DMSO + TET control ([4]; 50 μM): **** (****p<0.0001)
- relative StAR expression vs DMSO + TET control ([4]; 50 μM): **** (****p<0.0001)
- regulation of nuclear receptor SF-1 target genes ([4]; HEK293 cells with Tet-inducible SF-1, 24 h): can regulate these target genes; also recorded: able to regulate nuclear receptor SF-1 target genes; also recorded: did detect changes
